Source: patent US20240287138A1, “CYCLIC PEPTIDES FOR INHIBITING TNF RECEPTOR 1 ACTIVITY” (Merck Sharp & Dohme LLC, priority 2023, published 2024)
Numbered stars: 1 amine (or outer) side, 2 acyl side, 3 side chain; on linkers, the order of the positions; unused ones are H or OH. Bridge positions count the residues as written; N and C are the ends. Square brackets hold non-standard residues; d marks the D form. Peptide text beside a SMILES is read from it. Trp(βS-Me,7-OMe) = COc1cccc2c([C@H](C)[C@H](N)C(=O)O)c[nH]c12; Phe(3R-OH) = O=C([C@@H](N[*:1])[C@H](O[*:3])c1ccccc1)[*:2]; Trp(7-Cl) = N[C@@H](Cc1c[nH]c2c(Cl)cccc12)C(=O)O; Phe(4-COOH) = N[C@@H](Cc1ccc(C(=O)O)cc1)C(=O)O; Trp(7-aza) = N[C@@H](Cc1c[nH]c2ncccc12)C(=O)O; Ala(4-thiazolyl) = N[C@@H](Cc1cscn1)C(=O)O; X1 = O=C([C@@H]1CC[C@H](N[*:1])C1)[*:2]; d(cisHyp) = O=C(O)[C@H]1C[C@@H](O)CN1; Pip(4-aza) = O=C(O)[C@@H]1CNCCN1; hPhe = N[C@@H](CCc1ccccc1)C(=O)O; 4Pal = N[C@@H](Cc1ccncc1)C(=O)O; NMeE = CN[C@@H](CCC(=O)O)C(=O)O; Cit = NC(=O)NCCC[C@H](N)C(=O)O; αMeS = C[C@](N)(CO)C(=O)O; NMeA = CN[C@@H](C)C(=O)O; Nle = CCCC[C@H](N)C(=O)O; Sar = CNCC(=O)O

Legend:
[1] = target: T1, human soluble TNFR1 (sTNFR1) (Homo sapiens, UniProt P19438); test: Human sTNFR1-peptide displacement assay (LanthaScreen Eu TR-FRET binding assay)
T1 construct: made in house; host or cells: Sf21 (baculovirus)
T1 sequence (P19438 with tags, fused parts or gaps): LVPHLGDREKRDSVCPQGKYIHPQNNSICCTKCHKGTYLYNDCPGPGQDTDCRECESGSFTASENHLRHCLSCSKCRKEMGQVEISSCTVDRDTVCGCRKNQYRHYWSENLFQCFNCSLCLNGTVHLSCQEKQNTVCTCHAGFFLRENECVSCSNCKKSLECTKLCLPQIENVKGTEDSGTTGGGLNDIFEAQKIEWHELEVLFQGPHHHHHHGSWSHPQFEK
Summary of the method: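 Readout is the 665/615 nm TR-FRET ratio (Eu anti-His donor, streptavidin-Alexa647 acceptor), normalized to DMSO and saturating displacer, fit by Morrison-based five-parameter logistic for Kd^app. His-tagged sTNFR1 (1-211) prebound to 100 nM biotinylated peptide SEQ ID NO.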

[2] = target: T2, human TNFR1 extracellular domain (ECD) protein (Homo sapiens, UniProt P19438); test: SPR binding affinity to captured human TNFR1 ECD
T2 construct: HRV 3C protease cleavage site (C); 6His (C, cleaved yes); made in house; host or cells: Sf21 insect cells (baculovirus), secreted
T2 sequence (P19438 30-211): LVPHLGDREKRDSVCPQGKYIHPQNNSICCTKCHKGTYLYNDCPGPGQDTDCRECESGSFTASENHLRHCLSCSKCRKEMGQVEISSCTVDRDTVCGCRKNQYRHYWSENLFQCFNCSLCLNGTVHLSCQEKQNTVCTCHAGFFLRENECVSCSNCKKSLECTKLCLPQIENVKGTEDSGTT
Summary of the method: (§1)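 Biotinylated avi-tagged human TNFR1 or TNFR2 ECD, expressed in Sf21 insect cells, captured on streptavidin SPR chip; peptide analytes run in 10 mM HEPES pH 7.4, 150 mM NaCl, 3 mM EDTA, 0.05% P20, 2% DMSO. kon and koff measured, affinity KA calculated.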

[3] = target: T3, human TNFR2 ECD protein (Homo sapiens, UniProt P20333); test: SPR off-target binding (selectivity) to human TNFR2 ECD
T3 construct: HRV 3C protease cleavage site (C); 6His (C, cleaved yes); made in house; host or cells: Sf21 insect cells (baculovirus), secreted
T3 sequence (P20333 23-257): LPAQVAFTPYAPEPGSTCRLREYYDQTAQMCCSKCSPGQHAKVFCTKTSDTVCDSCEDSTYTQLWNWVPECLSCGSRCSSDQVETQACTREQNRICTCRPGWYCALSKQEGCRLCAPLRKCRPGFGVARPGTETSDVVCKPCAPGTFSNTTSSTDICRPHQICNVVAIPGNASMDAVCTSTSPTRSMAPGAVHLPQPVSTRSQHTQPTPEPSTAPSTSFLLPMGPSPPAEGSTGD
Summary of the method: as §1

Compound: CCCC[C@@H]1NC(=O)CSC[C@@H](C(N)=O)NC(=O)[C@H]([C@@H](C)c2c[nH]c3c(OC)cccc23)NC(=O)CN(C)C(=O)[C@H](Cc2ccc(O)cc2)NC(=O)[C@H](Cc2ccc(C(=O)O)cc2)NC(=O)[C@](C)(CO)NC(=O)[C@H](Cc2c[nH]c3c(Cl)cccc23)NC(=O)[C@H](Cc2ccncc2)NC(=O)[C@H](CC(N)=O)NC(=O)[C@H](CCC(=O)O)N(C)C(=O)[C@H](Cc2c[nH]c3ncccc23)NC(=O)[C@H](Cc2cscn2)NC(=O)[C@H](Cc2ccncc2)NC1=O [SEQ ID NO. 253] ({CH2CO}-[Nle][4Pal][Ala(4-thiazolyl)][Trp(7-aza)][NMeE]N[4Pal][Trp(7-Cl)][αMeS][Phe(4-COOH)]Y[Sar][Trp(βS-Me,7-OMe)]C-NH2; thioether N-14)
- IC50 [1]: 0.77 nM
- Kd [1]: 1.02 nM
- Kd [2]: 1.09 nM
- Kd [3]: > 1000 nM

Compound: CN1CC(=O)N[C@@H](Cc2c[nH]c3ccccc23)C(=O)N[C@H](C(N)=O)CSCC(=O)N[C@@H](CCCCN)C(=O)N[C@@H](Cc2ccc(O)cc2)C(=O)N[C@@H](CO)C(=O)N[C@@H](Cc2c[nH]c3ccccc23)C(=O)N2CCC[C@@H]2C(=O)N[C@@H](CCCNC(N)=O)C(=O)N[C@@H](Cc2ccncc2)C(=O)N[C@@H](Cc2c[nH]c3ccccc23)C(=O)N[C@@](C)(CO)C(=O)N[C@@H](Cc2ccc(C(=O)O)cc2)C(=O)N[C@@H](Cc2ccc(O)cc2)C1=O [SEQ ID NO. 256] ({CH2CO}-KYSW[dP][Cit][4Pal]W[αMeS][Phe(4-COOH)]Y[Sar]WC-NH2; thioether N-14)
- IC50 [1]: 1.84 nM
- Kd [2]: 1.4 nM
- Kd [3]: > 1000 nM

Compound: CCCC[C@@H]1NC(=O)CSC[C@@H](C(N)=O)NC(=O)[C@H]([C@@H](C)c2c[nH]c3c(OC)cccc23)NC(=O)CN(C)C(=O)[C@H](Cc2ccc(O)cc2)NC(=O)[C@H](Cc2ccc(C(=O)O)cc2)NC(=O)[C@](C)(CO)NC(=O)[C@H](Cc2c[nH]c3c(Cl)cccc23)NC(=O)[C@H](Cc2ccncc2)NC(=O)[C@H](CC(N)=O)NC(=O)[C@H](CCC(=O)O)N(C)C(=O)[C@H](Cc2c[nH]c3ncccc23)NC(=O)[C@H](CO)NC(=O)[C@H]([C@H](O)c2ccccc2)NC1=O [SEQ ID NO. 259] ({CH2CO}-[Nle][Phe(3R-OH)]S[Trp(7-aza)][NMeE]N[4Pal][Trp(7-Cl)][αMeS][Phe(4-COOH)]Y[Sar][Trp(βS-Me,7-OMe)]C-NH2; thioether N-14)
- Kd [1]: 0.22 nM
- Kd [2]: 0.15 nM
- Kd [3]: > 1000 nM

Compound: C[C@H]1C(=O)N[C@@H](CC(N)=O)C(=O)N[C@@H](Cc2ccncc2)C(=O)N[C@@H](Cc2c[nH]c3ccccc23)C(=O)N[C@@](C)(CO)C(=O)N[C@@H](Cc2ccc(C(=O)O)cc2)C(=O)N[C@@H](CCCNC(=N)N)C(=O)N(C)CC(=O)N[C@@H](Cc2c[nH]c3ccccc23)C(=O)N[C@H](C(N)=O)CSCC(=O)N[C@@H](CCc2ccccc2)C(=O)N[C@@H](Cc2ccc(O)cc2)C(=O)N[C@@H](CO)C(=O)N[C@@H](Cc2c[nH]c3ccccc23)C(=O)N1C [SEQ ID NO. 260] ({CH2CO}-[hPhe]YSW[NMeA]N[4Pal]W[αMeS][Phe(4-COOH)]R[Sar]WC-NH2; thioether N-14)
- IC50 [1]: 10.2 nM
- Kd [2]: 6 nM
- Kd [3]: > 1000 nM

Compound: CCCC[C@@H]1NC(=O)CSC[C@@H](C(N)=O)NC(=O)[C@H]([C@@H](C)c2c[nH]c3c(OC)cccc23)NC(=O)CN(C)C(=O)[C@H](Cc2ccc(O)cc2)NC(=O)[C@H](Cc2ccc(C(=O)O)cc2)NC(=O)[C@](C)(CO)NC(=O)[C@H](Cc2c[nH]c3c(Cl)cccc23)NC(=O)[C@H](Cc2ccncc2)NC(=O)[C@H](CC(N)=O)NC(=O)[C@H]2C[C@@H](O)CN2C(=O)[C@H](Cc2c[nH]c3ncccc23)NC(=O)[C@@H]2CNCCN2C(=O)[C@H](Cc2ccncc2)NC1=O [SEQ ID NO. 261] ({CH2CO}-[Nle][4Pal][Pip(4-aza)][Trp(7-aza)][d(cisHyp)]N[4Pal][Trp(7-Cl)][αMeS][Phe(4-COOH)]Y[Sar][Trp(βS-Me,7-OMe)]C-NH2; thioether N-14)
- IC50 [1]: 0.4 nM
- Kd [1]: 0.3 nM
- Kd [2]: 0.2 nM
- Kd [3]: > 1000 nM

Compound: CCCC[C@@H]1NC(=O)[C@@H]2CC[C@@H](C2)NC(=O)[C@H]([C@@H](C)c2c[nH]c3c(OC)cccc23)NC(=O)CN(C)C(=O)[C@H](Cc2ccc(O)cc2)NC(=O)[C@H](Cc2ccc(C(=O)O)cc2)NC(=O)[C@](C)(CO)NC(=O)[C@H](Cc2c[nH]c3c(Cl)cccc23)NC(=O)[C@H](Cc2ccncc2)NC(=O)[C@H](CC(N)=O)NC(=O)[C@H](CCC(=O)O)N(C)C(=O)[C@H](Cc2c[nH]c3c(Cl)cccc23)NC(=O)[C@@H]2CNCCN2C(=O)[C@H](Cc2ccncc2)NC1=O [SEQ ID NO. 262] (cyclo([4Pal][Trp(7-Cl)][αMeS][Phe(4-COOH)]Y[Sar][Trp(βS-Me,7-OMe)][X1][Nle][4Pal][Pip(4-aza)][Trp(7-Cl)][NMeE]N))
- Kd [1]: 0.39 nM
- Kd [2]: 0.24 nM
- Kd [3]: > 1000 nM
